Measured values published in PMC6201879, “N-substituted phenylbenzamides of the niclosamide chemotype attenuate obesity related changes in high fat diet fed mice” (PLoS ONE, 2018).
Like-named read-outs stand apart in the source and are kept apart here.

What was measured:
[1] = test system: PH5CH8 liver cells; assay: High-throughput hepatic de novo lipogenesis (DNL) assay, high content imaging of steatotic phenotype; assay type: cell-based, human; details: for IC50: Homo sapiens
[2] = test system: HEK293 cells stably transduced with the human OCT3 transporter; assay: Cellular oxygen consumption rate (OCR), MitoXpress Xtra; assay type: cell-based; details: HEK293 cells expressing human OCT3; compared to DMSO control; 2 hours
Summary of the method: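 HEK293 cells stably expressing human OCT3, treated with four compound concentrations; oxygen consumption followed by MitoXpress Xtra TR-F lifetime (340/650 nm) every 2 min for 2 h. Lifetime slope from the linear portion taken as OCR; FCCP (1 μM) as stimulated control, differences versus DMSO by t-test.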

[3] = Metabolic stability in human liver microsomes; assay type: in vitro ADME
Protocol: (§1) Three experiments were performed with 1) 0.5mg/ml microsomes and 1mM NADPH, 2) 0.5mg/ml microsomes without NADPH and 3) 0.5mg/ml heat inactivated microsomes without NADPH in 100mM phosphate buffer, containing 5mM magnesium chloride. […] At the indicated time points, 50μl samples were removed and stopped by addition of 4 volumes of cold acetonitrile with internal standards, 100nM alprazolam, 200nM labetalol and 2μM ketoprofen. The samples were centrifuged at 3,220 g for 40 minutes and aliquots of 100μl were subsequently diluted with 100μl of ultra-pure water and analyzed by LC/MS/MS using a (Shimadzu corporation) LC system coupled to a Shimadzu Triple Quad 5500 mass spectrometer with an ESI interface. The LC system used a Waters XSelect HSS T3 C18, 2.5μm, 2.1 x 50 mm column eluted with one of two methods using mobile phases A (water, 0.1% formic acid) and B (acetonitrile, 0.1% formic acid). […] The Shimadzu Triple Quad 5500 MS was operated with the following parameters: Ion source: Turbo spray; Ionization mode: ESI; Scan type: MRM; Collision gas: 10 L/min; Curtain gas: 30 L/min; Nebulize gas: 50 L/min; Auxiliary gas: 50 L/min; Temperature: 500°C; Ionspray voltage: +5500 V (positive MRM). All experiments were performed in duplicate. Data were analyzed using Microsoft excel, and peak areas were determined from extracted ion chromatograms.

[4] = Metabolic stability in mouse liver microsomes; assay type: in vitro ADME; details: 60 min
Protocol: as §1

[5] = test system: Salmonella typhimurium TA100; details: for Mean Revertant Colony Counts TA-100 SP9+: with S9; for Mean Revertant Colony Counts TA-100 S9-: without S9
[6] = test system: Salmonella typhimurium TA98; assay: Ames assay, strain TA98; details: for Mean Revertant Colony Counts TA98 SP9+: with S9; for Mean Revertant Colony Counts TA98 S9-: without S9
[7] = 0.5mg/ml microsomes and 1mM NADPH
[8] = 0.5mg/ml microsomes without NADPH
[9] = heat inactivated microsomes without NADPH

SMILES: CC(C)(C)c1ccc(O)c(C(=O)Nc2cc(C(=O)O)ccc2Cl)c1 [Compound 600494, 3-{[2-Hydroxy-5-(tert-butyl)benzene]amido}-4chloro-benzoic acid]
- IC50 ([1]; PH5CH8 liver cells, 10-point dose response between 1μM and 1.9nM, read-out: IC50 (uM), inhibition of steatotic phenotype in DNL assay): 0.004 µM
- IC50 ([1]; S1 Table. SAR for N-Substituted Phenylbenzamides, read-out: IC50): 0.0039 µM
- Active/Inactive ([1]; S1 Table. SAR for N-Substituted Phenylbenzamides): Active
- change in respiration / oxygen consumption rate (OCR) [2]: no change in respiration
- Remaining Percentage of 60 min (%), Human, Tested Sample [3, 7]: 99.4%
- Remaining Percentage of 60 min (%), Human, Negative Control [3, 8]: 92.8%
- Remaining Percentage of 60 min (%), Human, Heat-inactivated Control [3, 9]: 114.2%
- Remaining Percentage of 60 min (%), Mouse, Tested Sample [4, 7]: 109.6%
- Remaining Percentage of 60 min (%), Mouse, Negative Control [4, 8]: 68.9%
- Remaining Percentage of 60 min (%), Mouse, Heat-inactivated Control [4, 9]: 98.5%
- Mean Revertant Colony Counts TA-100 SP9+ ([5]; 1.5 ug/Well): 20.7
- Mean Revertant Colony Counts TA-100 S9- ([5]; 1.5 ug/Well): 30.0
- Mean Revertant Colony Counts TA-100 SP9+ ([5]; 4 ug/Well): 17.3
- Mean Revertant Colony Counts TA-100 S9- ([5]; 4 ug/Well): 27.0
- Mean Revertant Colony Counts TA-100 SP9+ ([5]; 10 ug/Well): 18.0
- Mean Revertant Colony Counts TA-100 S9- ([5]; 10 ug/Well): 25.0
- Mean Revertant Colony Counts TA-100 SP9+ ([5]; 25 ug/Well): 22.0
- Mean Revertant Colony Counts TA-100 S9- ([5]; 25 ug/Well): 24.0
- Mean Revertant Colony Counts TA-100 SP9+ ([5]; 64 ug/Well): 16.3
- Mean Revertant Colony Counts TA-100 S9- ([5]; 64 ug/Well): 33.0
- Mean Revertant Colony Counts TA-100 SP9+ ([5]; 160 ug/Well): 21.0
- Mean Revertant Colony Counts TA-100 S9- ([5]; 160 ug/Well): 25.7
- Mean Revertant Colony Counts TA-100 SP9+ ([5]; 400 ug/Well): 21.3
- Mean Revertant Colony Counts TA-100 S9- ([5]; 400 ug/Well): 22.3
- Mean Revertant Colony Counts TA-100 SP9+ ([5]; 1000 ug/Well): 20.3
- Mean Revertant Colony Counts TA-100 S9- ([5]; 1000 ug/Well): 17.7
- fold increase in the mean number of revertant colonies, TA100 ([5]; any concentration tested, vs negative control): < 2 fold
- Mean Revertant Colony Counts TA98 SP9+ ([6]; 1.5 ug/Well): 8.7
- Mean Revertant Colony Counts TA98 S9- ([6]; 1.5 ug/Well): 7.3
- Mean Revertant Colony Counts TA98 SP9+ ([6]; 4 ug/Well): 9.3
- Mean Revertant Colony Counts TA98 S9- ([6]; 4 ug/Well): 7.7
- Mean Revertant Colony Counts TA98 SP9+ ([6]; 10 ug/Well): 7.7
- Mean Revertant Colony Counts TA98 S9- ([6]; 10 ug/Well): 7.3
- Mean Revertant Colony Counts TA98 SP9+ ([6]; 25 ug/Well): 12.0
- Mean Revertant Colony Counts TA98 S9- ([6]; 25 ug/Well): 6.7
- Mean Revertant Colony Counts TA98 SP9+ ([6]; 64 ug/Well): 8.0
- Mean Revertant Colony Counts TA98 S9- ([6]; 64 ug/Well): 6.0
- Mean Revertant Colony Counts TA98 SP9+ ([6]; 160 ug/Well): 15.7
- Mean Revertant Colony Counts TA98 S9- ([6]; 160 ug/Well): 11.7
- Mean Revertant Colony Counts TA98 SP9+ ([6]; 400 ug/Well): 10.3
- Mean Revertant Colony Counts TA98 S9- ([6]; 400 ug/Well): 14.0
- fold increase in revertant colonies, TA98 ([6]; 400 μg/well in the absence of S9 mix): ≥ 2 fold
- Mean Revertant Colony Counts TA98 SP9+ ([6]; 1000 ug/Well): 11.3
- Mean Revertant Colony Counts TA98 S9- ([6]; 1000 ug/Well): 10.7
